Measurements: ChEMBL document CHEMBL5528002, “Identification of selective 5-LOX and FLAP inhibitors as novel anti-inflammatory agents by ligand-based virtual screening” (Eur J Med Chem, 2024)
The source made the active and inactive calls. The rule behind the calls is not given here.

Key:
[1] = molecular target: T1, Polyunsaturated fatty acid 5-lipoxygenase (Homo sapiens) (UniProt P09917); experiment: Inhibition of 5-LOX in human Neutrophil assessed as enzyme remaining activity at 30 nM preincubated with compound for 15 mins followed by A23187 addition measured after 10 mins by RP-HPLC analysis relative to control; type: cell-based; settings: time 25.0 min
T1 sequence (whole entry): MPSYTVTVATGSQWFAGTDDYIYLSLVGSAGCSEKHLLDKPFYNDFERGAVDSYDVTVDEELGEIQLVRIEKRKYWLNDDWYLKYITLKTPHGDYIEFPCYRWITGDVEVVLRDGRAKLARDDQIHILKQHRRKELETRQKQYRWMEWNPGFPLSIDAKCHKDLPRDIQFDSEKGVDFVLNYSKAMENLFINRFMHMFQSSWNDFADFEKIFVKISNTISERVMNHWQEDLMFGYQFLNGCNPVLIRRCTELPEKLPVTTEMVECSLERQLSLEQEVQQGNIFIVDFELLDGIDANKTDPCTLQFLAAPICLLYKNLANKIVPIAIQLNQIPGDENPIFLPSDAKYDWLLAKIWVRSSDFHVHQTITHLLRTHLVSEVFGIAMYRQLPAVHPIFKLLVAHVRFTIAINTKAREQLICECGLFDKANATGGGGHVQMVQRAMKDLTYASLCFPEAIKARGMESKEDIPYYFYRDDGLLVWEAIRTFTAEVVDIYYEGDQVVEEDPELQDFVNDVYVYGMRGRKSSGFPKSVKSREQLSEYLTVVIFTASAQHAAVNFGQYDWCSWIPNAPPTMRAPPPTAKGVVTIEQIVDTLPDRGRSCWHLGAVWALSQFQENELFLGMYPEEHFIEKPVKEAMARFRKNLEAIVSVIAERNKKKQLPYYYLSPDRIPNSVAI

[2] = molecular target: T1, Polyunsaturated fatty acid 5-lipoxygenase (Homo sapiens); experiment: Inhibition of 5-LOX in human Neutrophil assessed as enzyme remaining activity at 30 nM using arachidonic acid as substrate preincubated with compound for 15 mins followed by substrate and A23187 addition measured after 10 mins by RP-HPLC analysis relative to control; type: cell-based; settings: time 25.0 min
[3] = molecular target: T2, Prostaglandin E synthase (Homo sapiens) (UniProt O14684); experiment: Inhibition of human mPGES-1 assessed as enzyme remaining activity at 10 uM relative to control
T2 sequence (whole entry): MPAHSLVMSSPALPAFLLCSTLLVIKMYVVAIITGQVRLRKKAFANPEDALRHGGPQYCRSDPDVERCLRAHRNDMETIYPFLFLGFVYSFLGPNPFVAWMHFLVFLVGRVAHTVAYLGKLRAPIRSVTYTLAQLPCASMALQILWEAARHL

[4] = molecular target: T1, Polyunsaturated fatty acid 5-lipoxygenase (Homo sapiens); experiment: (§1) Inhibition of 5-LOX in human Neutrophil assessed as enzyme remaining activity at 10 uM using arachidonic acid as substrate preincubated with compound for 15 mins followed by substrate and A23187 addition measured after 10 mins by RP-HPLC analysis relative to control; type: cell-based; settings: time 25.0 min
[5] = molecular target: T1, Polyunsaturated fatty acid 5-lipoxygenase (Homo sapiens); experiment: Inhibition of 5-LOX in human Neutrophil at 10 uM using arachidonic acid as substrate preincubated with compound for 15 mins followed by substrate and A23187 addition measured after 10 mins by RP-HPLC analysis relative to control; type: cell-based; settings: time 25.0 min
Neutrophil [6] = experiment: Inhibition of ROS production in PMA-induced human Neutrophil cells at 10 uM incubated for 10 mins by DCFH-DA dye based fluorometric assay; type: functional, cell-based
[7] = molecular target: T1, Polyunsaturated fatty acid 5-lipoxygenase (Homo sapiens); experiment: Inhibition of 5-LOX in human Neutrophil assessed as enzyme remaining activity at 10 uM preincubated with compound for 15 mins followed by A23187 addition measured after 10 mins by RP-HPLC analysis relative to control; type: cell-based; settings: time 25.0 min
Neutrophil [8] = experiment: Inhibition of ROS production in PMA-induced human Neutrophil cells at 1 uM incubated for 10 mins by DCFH-DA dye based fluorometric assay; type: functional, cell-based
[9] = molecular target: T1, Polyunsaturated fatty acid 5-lipoxygenase (Homo sapiens); experiment: as §1, with “of human recombinant” for “of”, “5-LOX expressed” for “5-LOX”, “Escherichia coli BL21(DE3)” for “human Neutrophil”, “CaCl2” for “A23187”; settings: time 25.0 min
[10] = molecular target: T3, Bifunctional epoxide hydrolase 2 (Homo sapiens) (UniProt P34913); experiment: Inhibition of human sEH at 10 uM relative to control
T3 sequence (whole entry): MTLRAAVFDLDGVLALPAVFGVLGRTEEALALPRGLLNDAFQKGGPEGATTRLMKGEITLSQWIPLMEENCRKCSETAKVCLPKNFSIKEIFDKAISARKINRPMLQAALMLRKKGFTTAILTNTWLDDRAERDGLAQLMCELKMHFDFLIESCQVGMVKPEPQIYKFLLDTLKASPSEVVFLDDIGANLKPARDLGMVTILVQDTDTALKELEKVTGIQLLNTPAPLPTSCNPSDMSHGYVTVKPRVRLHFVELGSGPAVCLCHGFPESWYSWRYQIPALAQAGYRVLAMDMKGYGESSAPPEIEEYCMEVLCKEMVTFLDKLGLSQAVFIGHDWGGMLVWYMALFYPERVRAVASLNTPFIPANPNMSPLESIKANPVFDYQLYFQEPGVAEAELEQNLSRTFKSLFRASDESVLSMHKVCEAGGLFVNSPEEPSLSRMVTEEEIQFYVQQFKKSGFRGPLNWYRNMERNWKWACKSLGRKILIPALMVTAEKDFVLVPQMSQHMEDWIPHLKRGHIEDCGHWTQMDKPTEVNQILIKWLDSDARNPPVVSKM

[11] = Antioxidant activity assessed as DPPH radical scavenging activity at 10 uM incubated for 30 min by DPPH assay; type: functional
[12] = molecular target: T1, Polyunsaturated fatty acid 5-lipoxygenase (Homo sapiens); experiment: Inhibition of 5-LOX in human Neutrophil at 10 uM preincubated with compound for 15 mins followed by A23187 addition measured after 10 mins by RP-HPLC analysis relative to control; type: cell-based; settings: time 25.0 min
[13] = Antioxidant activity assessed as DPPH radical scavenging activity at 1 uM incubated for 30 min by DPPH assay; type: functional
[14] = molecular target: T2, Prostaglandin E synthase (Homo sapiens); experiment: Inhibition of human mPGES-1 at 10 uM relative to control
[15] = molecular target: T3, Bifunctional epoxide hydrolase 2 (Homo sapiens); experiment: Inhibition of human sEH assessed as enzyme remaining activity at 10 uM relative to control
[16] = molecular target: T4, Polyunsaturated fatty acid 5-lipoxygenase (Homo sapiens, UniProt P09917); experiment: Inhibition of 5-LOX in human Neutrophil using arachidonic acid as substrate preincubated with compound for 15 mins followed by substrate and A23187 addition measured after 10 mins by RP-HPLC analysis; type: cell-based
T4 sequence (P09917 whole entry): T1 sequence (whole entry)

[17] = molecular target: T4, Polyunsaturated fatty acid 5-lipoxygenase; experiment: Inhibition of human recombinant 5-LOX expressed in Escherichia coli BL21(DE3) using arachidonic acid as substrate preincubated with compound for 15 mins followed by substrate and CaCl2 addition measured after 10 mins by RP-HPLC analysis

SMILES	Activity [1] [%]	Activity [2] [%]	Activity [3] [%]	Activity [4] [%]	inhibition [5]	inhibition (Neutrophil [6])	Activity [7] [%]	inhibition (Neutrophil [8])	Activity [9] [%]	inhibition [10] [%]	Activity [11]	inhibition [12]	Activity [13]	inhibition [14]	Activity [15] [%]	IC50 [16] [nM]	IC50 [17] [nM]
CC(C)c1ccc2c(c1)c(SC(C)(C)C)c(CC(C)(C)C(=O)O)n2Cc1ccc(Cl)cc1	1.5	7.8	45.8														
CC(=O)NC(CCc1ccc(Cl)c(Cl)c1)c1cccc(O)c(=O)c1 (configuration not stated)			102	49.5	> 50%	inactive	34.5	inactive	5.3	> 35	inactive	> 50%	inactive	inactive	66.2		
Nc1nc(N)c2cc([S+]([O-])c3ccc4ccccc4c3)ccc2n1 (configuration not stated)			88.3	82.1	inactive		62		94.6	> 35		37%		inactive	93.9		
Oc1nc(Cc2ccc3ccccc3n2)cc(-c2ccccc2)n1			55.8	111	inactive		53.9		68.1	> 35		37%		inactive	91.6		
O=C1Nc2ccccc2/C1=N\CCc1c[nH]c2ccccc12			30.4	42.8	Active		73.5		69.1	> 35		inactive		> 50%	92.8		
COC(=O)c1ccc(NCc2cc(O)c3ccccc3c2O)cc1			50.4	1.9	> 50%	Active	3.3	inactive	6.1	> 35	Active	> 50%	inactive	< 40%	84.4	1000	1100
N=C1OC(c2c[nH]c3ccc(OCc4ccccc4)cc23)C(O)=C1O (configuration not stated)			56.8	92.3	inactive		56.1		95	> 35		37%		< 40%	86.7		
O=C(c1nc2ccc(Cl)cc2nc1O)C(O)c1ccc2c(c1)OCO2 (configuration not stated)			89.4	90.7			101		81.2	> 35		inactive		inactive	93.8		
O=C1NC(=O)C(CCC(=O)c2ccc3ccccc3c2)C(=O)N1			77.5	94.8	inactive		63.3		86.1	> 35		37%		inactive	83.3		
O=C1CCC(CCc2nc3ccccc3[nH]2)(c2ccccc2)C(=O)N1 (configuration not stated)			92.7	110			102		106	> 35		inactive		inactive	98.7		
